From ChEMBL document CHEMBL3243950, “New inhibitors of steroid 11beta-hydroxylase. Structure--activity relationship studies of metyrapone-like compounds” (J Med Chem, 1977) come the findings set out here.

Structures are written as SMILES.

For orientation: inhibition means how much of the control response was suppressed. Broadly, the Ki is a measure of affinity in units of concentration, obtained from inhibition or displacement.

Data set [1] deals with T1, Cytochrome P450 11B1, mitochondrial (Bos taurus, UniProt P15150).
T1 sequence (P15150 whole entry): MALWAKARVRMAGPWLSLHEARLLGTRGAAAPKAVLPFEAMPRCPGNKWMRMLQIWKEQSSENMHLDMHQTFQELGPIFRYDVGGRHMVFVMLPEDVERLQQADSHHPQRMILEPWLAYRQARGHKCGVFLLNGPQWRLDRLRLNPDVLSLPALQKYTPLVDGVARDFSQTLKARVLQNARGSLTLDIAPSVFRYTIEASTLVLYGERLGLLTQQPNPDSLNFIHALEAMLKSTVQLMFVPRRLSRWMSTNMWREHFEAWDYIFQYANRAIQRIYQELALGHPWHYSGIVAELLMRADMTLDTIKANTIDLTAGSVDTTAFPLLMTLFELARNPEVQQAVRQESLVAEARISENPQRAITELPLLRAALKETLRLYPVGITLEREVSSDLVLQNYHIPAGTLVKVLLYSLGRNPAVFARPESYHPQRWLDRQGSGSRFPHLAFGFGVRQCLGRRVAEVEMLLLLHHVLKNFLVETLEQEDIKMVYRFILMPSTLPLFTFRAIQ
The data set can be described thus: Inhibition of bovine adrenal gland 11beta-hydroxylase assessed as inhibition of [14C]-deoxycorticosterone hydroxylation at 2 uM. The settings on record: cattle.

Data set [2] has as its target T1, Cytochrome P450 11B1, mitochondrial. The data set can be described thus: Inhibition of bovine adrenal gland 11beta-hydroxylase assessed as inhibition of [14C]-deoxycorticosterone hydroxylation at 2 uM relative to metyrapone. The settings on record: cattle.
For data set [3] the target is unchanged. The data set can be described thus: Inhibition of bovine adrenal gland 11beta-hydroxylase assessed as inhibition of [14C]-deoxycorticosterone hydroxylation.
The target is the same in data set [4]. The data set can be described thus: Inhibition of bovine adrenal gland 11beta-hydroxylase assessed as amount of corticosterone production using 22 nmol [14C]-deoxycorticosterone measured per 5 mins at 2 nmol (reference value: 1.3 +/- 0.04 nmol). The settings on record: cattle.
Data set [5] shares this target. The data set can be described thus: Inhibition of bovine adrenal gland 11beta-hydroxylase assessed as amount of corticosterone production using 22 nmol [14C]-deoxycorticosterone measured per 5 mins at 2 nmol. The settings on record: cattle.
Data set [6] has the same target. The data set can be described thus: Inhibition of bovine adrenal gland 11beta-hydroxylase assessed as amount of corticosterone production using 11 nmol [14C]-deoxycorticosterone measured per 5 mins at 2 nmol (reference value: 1.3 +/- 0.04 nmol). The settings on record: cattle.
Data set [7] has the same target. Briefly: Inhibition of bovine adrenal gland 11beta-hydroxylase assessed as amount of corticosterone production using 11 nmol [14C]-deoxycorticosterone measured per 5 mins at 2 nmol. The settings on record: cattle.

Consider `OC(c1cccnc1)C(c1ccccc1)c1ccccc1` (stereo not drawn), for which the inhibition at 2 µM in data set [1] stood at 17%. For the same compound, in data set [2], the Ratio worked out at 0.25.

Consider `O=C(Cc1ccccc1)c1cccnc1`, for which, in data set [1], the inhibition at 2 µM came to 9%. Moreover, in data set [2], the Ratio was 0.13.

As for `OC(c1ccccc1)C(c1ccccc1)c1cccnc1` (stereo not drawn), in data set [1], the inhibition at 2 µM was 44%. The Ratio in data set [2] was 0.65.

Consider `CC(C(=O)c1ccccc1)c1cccnc1` (stereo not drawn), for which the inhibition at 2 µM in data set [1] was determined as 44%. In data set [2], the Ratio came to 0.65.

Turning to `CC(C)(c1cccnc1)C(O)c1cccnc1` (stereo not drawn) [METYRAPOL], the inhibition at 2 µM in data set [1] came to 44%. For the same compound, in data set [2], the Ratio amounted to 0.65.

Consider `OC(c1cccnc1)C(c1ccccc1)c1cccnc1` (racemic), for which the inhibition at 2 µM in data set [1] was 9%. Further, the Ratio in data set [2] amounted to 0.13.

For the compound `C[C@@H](c1cccnc1)[C@@H](O)c1cccnc1` (relative stereo), in data set [1], the inhibition at 2 µM came to 28%. In data set [2], the Ratio worked out at 0.41.

As for `CC(C)(C(=O)c1cccnc1)c1cccnc1` [METYRAPONE], the inhibition at 2 µM in data set [1] came to 68%. The Ratio in data set [2] was found to be 1. Also, the Ki in data set [3] stood at 580 nM. The Activity in data set [4] is given as 0.74 nmol; in data set [6] it was 0.39 nmol. Also, the figures for the “inhibition (INH)” value in data set [5] and in data set [7] were 68% and 70%, respectively.

As for `CC(C(=O)c1cccnc1)c1ccccc1` (stereo not drawn), the inhibition at 2 µM in data set [1] came to 13%. Moreover, the Ratio in data set [2] came to 0.19.

As to `O=C(c1cccnc1)C(c1ccccc1)c1cccnc1` (stereo not drawn), the inhibition at 2 µM in data set [1] was determined as 35%. In addition, the Ratio in data set [2] is listed as 0.52.

In the case of `OC(Cc1cccnc1)c1cccnc1` (racemic), the inhibition at 2 µM in data set [1] worked out at 7%. In addition, the Ratio in data set [2] was 0.1.

In the case of `O=C(Cc1cccnc1)c1ccccc1`, the inhibition at 2 µM in data set [1] worked out at 15%. Moreover, the Ratio in data set [2] was 0.22.

Take `O=C(c1cccnc1)C(c1ccccc1)c1ccccc1`: the inhibition at 2 µM in data set [1] was determined as 15%. The Ratio in data set [2] was determined as 0.22.

With `O=C(c1ccccc1)C(c1ccccc1)c1cccnc1` (stereo not drawn), the inhibition at 2 µM in data set [1] is 22%. For the same compound, in data set [2], the Ratio was 0.32.
